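Values below derive from 48-hour exposures of cells grown in 96-well plates, with endpoints linearly interpolated between the two concentrations bracketing the appropriate inhibition level. TGI marks complete inhibition of growth.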
How the values were obtained:
Experiment in all cases: growth of human tumour cells (NCI), 48 h
A549 NSCLC = tested on: A549 NSCLC
HOP-62 NSCLC = tested on: HOP-62 NSCLC
MOLT-4 leukemia = tested on: MOLT-4 leukemia
UO-31 renal = tested on: UO-31 renal
NCI-H23 lung = tested on: NCI-H23 lung
SNB-19 CNS = tested on: SNB-19 CNS
IGROV1 ovarian = tested on: IGROV1 ovarian
CCRF-CEM leukemia = tested on: CCRF-CEM leukemia
HOP-92 NSCLC = tested on: HOP-92 NSCLC
PC-3 prostate = tested on: PC-3 prostate
U251 CNS = tested on: U251 CNS
OVCAR-4 ovarian = tested on: OVCAR-4 ovarian
COLO 205 colon = tested on: COLO 205 colon
HCT-116 colon = tested on: HCT-116 colon
SF-295 CNS = tested on: SF-295 CNS
MDA-MB-231 breast = tested on: MDA-MB-231 breast
SN12C renal = tested on: SN12C renal
HCC-2998 colon = tested on: HCC-2998 colon
786-0 renal = tested on: 786-0 renal
TK-10 renal = tested on: TK-10 renal
SNB-75 CNS = tested on: SNB-75 CNS
M14 melanoma = tested on: M14 melanoma
NCI-H522 lung = tested on: NCI-H522 lung
HT29 colon = tested on: HT29 colon
UACC-62 melanoma = tested on: UACC-62 melanoma
ACHN renal = tested on: ACHN renal
EKVX NSCLC = tested on: EKVX NSCLC
SW-620 colon = tested on: SW-620 colon
OVCAR-3 ovarian = tested on: OVCAR-3 ovarian
K-562 leukemia = tested on: K-562 leukemia
LOX IMVI melanoma = tested on: LOX IMVI melanoma
MDA-N = tested on: MDA-N
OVCAR-8 ovarian = tested on: OVCAR-8 ovarian
MDA-MB-435 = tested on: MDA-MB-435
OVCAR-5 ovarian = tested on: OVCAR-5 ovarian
BT-549 breast = tested on: BT-549 breast
SF-539 CNS = tested on: SF-539 CNS
DU-145 prostate = tested on: DU-145 prostate
SR leukemia = tested on: SR leukemia
KM12 colon = tested on: KM12 colon
NCI/ADR-RES ovarian = tested on: NCI/ADR-RES ovarian
SK-MEL-2 melanoma = tested on: SK-MEL-2 melanoma
SK-MEL-5 melanoma = tested on: SK-MEL-5 melanoma
RXF 393 renal = tested on: RXF 393 renal
SK-OV-3 ovarian = tested on: SK-OV-3 ovarian
MCF7 breast = tested on: MCF7 breast
HCT-15 colon = tested on: HCT-15 colon
SK-MEL-28 melanoma = tested on: SK-MEL-28 melanoma
RPMI-8226 leukemia = tested on: RPMI-8226 leukemia
SF-268 CNS = tested on: SF-268 CNS
UACC-257 melanoma = tested on: UACC-257 melanoma
A498 renal = tested on: A498 renal
NCI-H226 lung = tested on: NCI-H226 lung
NCI-H460 lung = tested on: NCI-H460 lung
CAKI-1 renal = tested on: CAKI-1 renal
T-47D breast = tested on: T-47D breast
HL-60(TB) leukemia = tested on: HL-60(TB) leukemia
MALME-3M melanoma = tested on: MALME-3M melanoma

`CCc1nnc(CC)n1N1C(=O)CCC1=O` was tested, and the TGI (A549 NSCLC) was > 100 µM, the TGI (HOP-62 NSCLC) was > 100 µM and the TGI (MOLT-4 leukemia) was > 100 µM. For the same compound, the TGI (UO-31 renal) was > 100 µM, the TGI (NCI-H23 lung) was > 100 µM and the TGI (SNB-19 CNS) was > 100 µM. The TGI (IGROV1 ovarian) was > 100 µM, the TGI (CCRF-CEM leukemia) was > 100 µM and the TGI (HOP-92 NSCLC) was > 100 µM. The TGI (PC-3 prostate) was > 100 µM, the TGI (U251 CNS) was > 100 µM and the TGI (OVCAR-4 ovarian) was > 100 µM. For the same compound, the TGI (COLO 205 colon) was > 100 µM, the TGI (HCT-116 colon) was > 100 µM and the TGI (SF-295 CNS) was > 100 µM. For the same compound, the TGI (MDA-MB-231 breast) was > 100 µM, the TGI (SN12C renal) was > 100 µM and the TGI (HCC-2998 colon) was > 100 µM. The TGI (786-0 renal) was > 100 µM, the TGI (TK-10 renal) was > 100 µM and the TGI (SNB-75 CNS) was > 100 µM. The TGI (M14 melanoma) was > 100 µM, the TGI (NCI-H522 lung) was > 100 µM and the TGI (HT29 colon) was > 100 µM. For the same compound, the TGI (UACC-62 melanoma) was > 100 µM, the TGI (ACHN renal) was > 100 µM and the TGI (EKVX NSCLC) was > 100 µM. For the same compound, the TGI (SW-620 colon) was > 100 µM, the TGI (OVCAR-3 ovarian) was > 100 µM and the TGI (K-562 leukemia) was > 100 µM. For the same compound, the TGI (LOX IMVI melanoma) was > 100 µM, the TGI (MDA-N) was > 100 µM and the TGI (OVCAR-8 ovarian) was > 100 µM. For the same compound, the TGI (MDA-MB-435) was > 100 µM, the TGI (OVCAR-5 ovarian) was > 100 µM and the TGI (BT-549 breast) was > 100 µM. For the same compound, the TGI (SF-539 CNS) was > 100 µM, the TGI (DU-145 prostate) was > 100 µM and the TGI (SR leukemia) was > 100 µM. The TGI (KM12 colon) was > 100 µM, the TGI (NCI/ADR-RES ovarian) was > 100 µM and the TGI (SK-MEL-2 melanoma) was > 100 µM. For the same compound, the TGI (SK-MEL-5 melanoma) was > 100 µM, the TGI (RXF 393 renal) was > 100 µM and the TGI (SK-OV-3 ovarian) was > 100 µM. For the same compound, the TGI (MCF7 breast) was > 100 µM, the TGI (HCT-15 colon) was > 100 µM and the TGI (SK-MEL-28 melanoma) was > 100 µM. The TGI (RPMI-8226 leukemia) was > 100 µM, the TGI (SF-268 CNS) was > 100 µM and the TGI (UACC-257 melanoma) was > 100 µM.

In the case of `Cc1nn(-c2ccccc2)c2nc3c(c(C)nn3-c3ccccc3)c(-c3ccc(C(F)(F)F)cc3)c12`, the TGI (A549 NSCLC) is reported as > 100 µM, the TGI (HOP-62 NSCLC) is reported as > 100 µM and the TGI (MOLT-4 leukemia) is reported as > 100 µM. For the same compound, the TGI (UO-31 renal) was > 100 µM, the TGI (NCI-H23 lung) was > 100 µM and the TGI (A498 renal) was > 100 µM. For the same compound, the TGI (SNB-19 CNS) was > 100 µM, the TGI (CCRF-CEM leukemia) was > 100 µM and the TGI (NCI-H226 lung) was > 100 µM. For the same compound, the TGI (HOP-92 NSCLC) was > 100 µM, the TGI (PC-3 prostate) was > 100 µM and the TGI (U251 CNS) was > 100 µM. For the same compound, the TGI (OVCAR-4 ovarian) was > 100 µM, the TGI (NCI-H460 lung) was > 100 µM and the TGI (COLO 205 colon) was > 100 µM. The TGI (HCT-116 colon) was > 100 µM, the TGI (SF-295 CNS) was > 100 µM and the TGI (MDA-MB-231 breast) was > 100 µM. For the same compound, the TGI (SN12C renal) was > 100 µM, the TGI (HCC-2998 colon) was > 100 µM and the TGI (786-0 renal) was > 100 µM. For the same compound, the TGI (TK-10 renal) was > 100 µM, the TGI (SNB-75 CNS) was 92.6 µM and the TGI (M14 melanoma) was > 100 µM. For the same compound, the TGI (HT29 colon) was > 100 µM, the TGI (UACC-62 melanoma) was > 100 µM and the TGI (ACHN renal) was > 100 µM. For the same compound, the TGI (EKVX NSCLC) was > 100 µM, the TGI (SW-620 colon) was > 100 µM and the TGI (OVCAR-3 ovarian) was > 100 µM. For the same compound, the TGI (K-562 leukemia) was > 100 µM, the TGI (LOX IMVI melanoma) was > 100 µM and the TGI (MDA-N) was > 100 µM. For the same compound, the TGI (OVCAR-8 ovarian) was > 100 µM, the TGI (CAKI-1 renal) was > 100 µM and the TGI (MDA-MB-435) was > 100 µM. The TGI (OVCAR-5 ovarian) was > 100 µM, the TGI (SF-539 CNS) was > 100 µM and the TGI (DU-145 prostate) was > 100 µM. For the same compound, the TGI (KM12 colon) was > 100 µM, the TGI (NCI/ADR-RES ovarian) was > 100 µM and the TGI (SK-MEL-5 melanoma) was > 100 µM. For the same compound, the TGI (RXF 393 renal) was > 100 µM, the TGI (SK-OV-3 ovarian) was > 100 µM and the TGI (MCF7 breast) was > 100 µM. The TGI (HCT-15 colon) was > 100 µM, the TGI (SK-MEL-28 melanoma) was > 100 µM and the TGI (T-47D breast) was > 100 µM. The TGI (HL-60(TB) leukemia) was > 100 µM, the TGI (RPMI-8226 leukemia) was > 100 µM and the TGI (SF-268 CNS) was > 100 µM. For the same compound, the TGI (UACC-257 melanoma) was > 100 µM.

In the case of `Cc1ccc(S(=O)(=O)Nn2c(S)c(C#N)c(-c3ccc(N(C)C)cc3)c(C#N)c2=O)cc1`, the TGI (A549 NSCLC) is reported as > 100 µM, the TGI (MOLT-4 leukemia) is reported as > 100 µM and the TGI (UO-31 renal) is reported as 44.8 µM. For the same compound, the TGI (NCI-H23 lung) was 61.1 µM, the TGI (A498 renal) was 80.6 µM and the TGI (SNB-19 CNS) was > 100 µM. The TGI (IGROV1 ovarian) was 38.5 µM, the TGI (CCRF-CEM leukemia) was > 100 µM and the TGI (MALME-3M melanoma) was 80.6 µM. For the same compound, the TGI (NCI-H226 lung) was 34.6 µM, the TGI (HOP-92 NSCLC) was > 100 µM and the TGI (U251 CNS) was 55.6 µM. The TGI (OVCAR-4 ovarian) was 43.1 µM, the TGI (NCI-H460 lung) was 39.3 µM and the TGI (COLO 205 colon) was 67.8 µM. For the same compound, the TGI (HCT-116 colon) was 90.5 µM, the TGI (SF-295 CNS) was > 100 µM and the TGI (MDA-MB-231 breast) was > 100 µM. For the same compound, the TGI (SN12C renal) was 68.2 µM, the TGI (HCC-2998 colon) was > 100 µM and the TGI (786-0 renal) was > 100 µM. The TGI (TK-10 renal) was 76.2 µM, the TGI (SNB-75 CNS) was > 100 µM and the TGI (M14 melanoma) was > 100 µM. The TGI (NCI-H522 lung) was 37.8 µM, the TGI (UACC-62 melanoma) was > 100 µM and the TGI (ACHN renal) was > 100 µM. The TGI (EKVX NSCLC) was > 100 µM, the TGI (SW-620 colon) was 37.7 µM and the TGI (K-562 leukemia) was > 100 µM. For the same compound, the TGI (LOX IMVI melanoma) was > 100 µM, the TGI (MDA-N) was > 100 µM and the TGI (OVCAR-8 ovarian) was 44.9 µM. The TGI (CAKI-1 renal) was > 100 µM, the TGI (MDA-MB-435) was 60 µM and the TGI (OVCAR-5 ovarian) was > 100 µM. For the same compound, the TGI (BT-549 breast) was 67.3 µM, the TGI (SF-539 CNS) was 40.7 µM and the TGI (DU-145 prostate) was > 100 µM. For the same compound, the TGI (SR leukemia) was > 100 µM, the TGI (KM12 colon) was 52.2 µM and the TGI (NCI/ADR-RES ovarian) was 97.2 µM. The TGI (SK-MEL-5 melanoma) was 45.3 µM, the TGI (RXF 393 renal) was 88.3 µM and the TGI (SK-OV-3 ovarian) was > 100 µM. The TGI (MCF7 breast) was > 100 µM, the TGI (HCT-15 colon) was 56.5 µM and the TGI (SK-MEL-28 melanoma) was 77.4 µM. For the same compound, the TGI (HL-60(TB) leukemia) was 79.6 µM, the TGI (RPMI-8226 leukemia) was 91.5 µM and the TGI (UACC-257 melanoma) was > 100 µM.

— PubChem BioAssay (NCI)
